Experimental data: a melting point compilation (Tetko et al.; mined from patent text by program, amines drawn as free bases though some values may be those of a salt)

| melting point | Compound |
| --- | --- |
| 97 to 99 °C | COc1ccc(C(=O)c2ccc(Br)s2)cc1 |
| 82 to 83 °C | CCOC(=O)/C=C/c1cc(-c2ccc(C(F)(F)F)cc2)oc1CC |
| 104 to 105 °C | COC(=O)NC(C)Cc1cccc([N+](=O)[O-])c1 (centres undefined) |
| 158 to 160 °C | CCOC(=O)Cc1c(C)nc(SCc2ccc(OC)cc2)n1C |
| 80 to 81 °C | Cc1ccc(S(=O)(=O)N(C)c2ccc(Cl)nn2)cc1 |
| 73 to 75 °C | CCCC(=O)c1cnc2ccc(OC)cc2c1Cl |
| 145 to 147 °C | O=[N+]([O-])c1ccccc1-c1ccc(Br)cc1[N+](=O)[O-] |
| 161 to 162 °C | COc1cccc(C2C(=O)CCc3ccccc32)c1 (centres undefined) |
| 86 °C | COC(=O)c1ccccc1NCc1ccncc1 |
| 70 °C | CC(OS(C)(=O)=O)c1ccc([N+](=O)[O-])cc1 (centres undefined) |
| 56 to 58 °C | N#CCc1ccccc1Oc1ccc(Br)cc1 |
| 104 to 106 °C | CCOC(=O)c1cccn1Cc1ccc(Cl)cc1[N+](=O)[O-] |
| 136 to 138 °C | CC(=O)c1ccc(OC(C)c2ccnc3ncnn23)cc1 (centres undefined) |
| 97 to 98 °C | CN(CCOc1ccc(C=O)cc1)c1nc2ccccc2o1 |
| 292 to 293 °C | N#Cc1c(-c2ccc(N)cc2)cc(-c2ccccc2O)nc1NC(=O)c1cccs1 |
| 65 to 66 °C | CCCCn1c(C)c(C)cc(NC(=O)OCc2ccccc2)c1=O |
| 233 to 235 °C | COc1cc(OS(C)(=O)=O)ccc1-c1nc2cc3c(cc2[nH]1)NC(=O)C3(C)C |
| 157 to 162 °C | C=C(CNc1ccc2ncnc(Nc3cccc(Br)c3)c2c1)C(=O)OC |
| 106 to 108 °C | CC(Br)c1ccc(-c2onc3ccccc23)cc1 (centres undefined) |
| 285 to 290 °C | N#CC1=C(N)N(c2ccccc2)CC1=O |
| 124 to 126 °C | Cc1c(-c2ccccc2)oc2c(C=O)cccc2c1=O |
| 125 °C | C#Cc1ccc2c(c1)Cc1cc(C#C)ccc1-2 |
| 96 to 97 °C | CC(C)(C)OC(=O)C=Cc1ccc2ccccc2n1 |
| 51 to 53 °C | c1ccc(-c2csc(-c3cccs3)n2)cc1 |
| 227 to 228 °C | CCOC(=O)CCC1(NC(=O)c2ccc(Cl)c(Cl)c2)C(=O)Nc2ccccc21 (centres undefined) |
| 247 to 248 °C | N#CCc1c(-c2ccccc2)[nH]c2nccnc12 |
| > 300 °C | COc1ccc2nc3[nH]cnc(=O)c3cc2c1 |
| 176 °C | Cn1nc(-c2ccc(Cl)cc2)c2c1-c1ccccc1C2 |
| 70 °C | C#CCOC(=O)C1=C(C)NN=C(CC)C1c1cccc([N+](=O)[O-])c1 (centres undefined) |
| 165 to 166 °C | COc1cccc(C#Cc2nc(C)ccc2N)c1 |

The next lines start with the compound.

| Compound | melting point |
| --- | --- |
| CCOP(=O)(CNC(=O)C[C@H]1O[C@H](c2cccc(OC)c2OC)c2cc(Cl)ccc2N(CC(C)(C)CO)C1=O)OCC | 138 to 140 °C |
| Cc1ccc(-c2c(Cl)nc(-c3cccs3)nc2NS(=O)(=O)c2ccc(C(C)(C)C)cc2)cc1 | > 300 °C |
| CCOC(=O)c1ccc(C=O)cn1 | 59 °C |
| Cc1cc(C)c2c(c1C)OC(C)(CBr)C2 (centres undefined) | 39 to 40 °C |
| CCc1cc2c(Nc3nnc(C)s3)ncnc2s1 | 277 to 280 °C |
| CC1CCC2C(C)(C)C(=O)OC3OC4(C)CCC1C32OO4 (single isomer, unassigned; (+)) | 117 to 118 °C |
| Cc1cc(Cl)cc2c(=O)oc(-c3cc(Br)nn3-c3ncccc3Cl)nc12 | 203 to 205 °C |
| Cn1c(C(F)(F)F)cc(=O)n(-c2cc(C=O)c(Cl)cc2Cl)c1=O | 117 to 120 °C |
| CC(=O)Nc1ccc(OCC2CCN(c3ccncc3)CC2)cc1 | 226 to 228 °C |
| O=C(O)c1ccc(O)c(C(=O)C=Cc2ccc(OCc3ccc4ccccc4n3)cc2)c1 | 258 to 260 °C |
| O[C@@H]1[C@H](O)[C@H](O)CO[C@H]1n1c(Br)nc2cc(Cl)ccc21 | 120 °C |
| NC(=O)c1c(Cl)ccc([N+](=O)[O-])c1Cl | 163 to 165 °C |
| CCSC1(SCC)C(=O)CC2C3CCC4=CC(=O)C=CC4(C)C3(F)C(O)CC21C (centres undefined) | 268 to 270 °C |
| C=CCn1c(SCc2cnn(-c3c(Cl)cc(C(F)(F)F)cc3Cl)n2)nc(C#N)c1C#N | 125 to 127 °C |
| CCn1ncc2c(O)c(CCc3ccccc3)c(C(=O)O)nc21 | 250 to 251 °C |
| COC(=O)c1cc([N+](=O)[O-])c(C)s1 | 81 °C |
| Cc1c(NC(=O)c2ccc(-c3ccc(F)cc3)cc2)ccc2cc(CN3CCC(CCCC(=O)N(C)C)CC3)cnc12 | 202 to 204 °C |
| Cc1ccc(S(=O)(=O)NN=C2CCCCCCCC2)cc1 | 135 to 138 °C |
| CCOC(=O)c1c(Cn2cncn2)nc2cc3c(cc2c1-c1ccc(OC)c(OC)c1)OCCO3 | 138 to 140 °C |
| CCOC(=O)C(=CNC1CC1)C(=O)c1ccc(F)c(Cl)c1F | 101 to 104 °C |
| CC(=O)OC(C)c1cc2c(s1)C(=O)c1sccc1C2=O (centres undefined) | 165 to 166 °C |
| CCCc1c(OCCCCCCc2ccc(C(C)(C)C)c(O)c2O)ccc(C(=O)O)c1O | 85 to 87 °C |
| Cc1nccn1-c1nc(-c2ccc(Cl)cc2)c(CCC(=O)NCCCl)o1 | 155 to 156 °C |

| Compound | melting point |
| --- | --- |
| CCN(CC)CCOC(=O)c1ccc(/C=C(\C)c2ccc3c(c2)C(C)(C)CCC3(C)C)cc1 | 65 to 66 °C |
| C=C[C@@H](C[C@H](O)[C@H](CC1CCCCC1)NC(=O)[C@H](Cc1c[nH]cn1)NC(=O)[C@@H](CC(=O)N1CCC(C(=O)OCC)CC1)Cc1ccccc1)C(C)C | 103 °C |
| c1ccc2c(c1)c1ccccc1n2-c1ccc(-c2ccc(-n3c4ccccc4c4ccccc43)cc2)cc1 | 280 to 281 °C |
| COC1=CC2=CCC3C(=CCC4(C)C(=O)CCC34)C2(C)CC1 (centres undefined) | 153 °C |
| O=[N+]([O-])c1cccc([N+](=O)[O-])c1NCCO | 77 °C |
| COCOc1ccccc1-c1cc(-c2ccc(C(=O)O)cc2)c(C#N)c(NC(=O)c2cccs2)n1 | 205 to 206 °C |
| N#Cc1cc([N+](=O)[O-])ccc1NCCCn1ccnc1 | 177 °C |
| C=CCc1ccc(C=CC(=O)c2ccc(OCC=C(C)C)cc2OCC(=O)O)cc1 | 125 to 126 °C |
| CC(C)n1nc(-c2c(-c3ccccc3)nn3ccc(N4CCN(S(C)(=O)=O)CC4)cc23)ccc1=O | 219 to 220 °C |
| Nc1nc2ccccc2c2c1ncn2CCOCCCc1cccs1 | 130 to 132 °C |
| CCCC(C)(C)C(=O)O[C@H]1C[C@H](O)C=C2C=C[C@H](C)[C@H](CC[C@@H]3C[C@@H](O)CC(=O)O3)[C@H]21 | 143 to 144 °C |
| Cc1cc2ncnn2nc1OCCOCCN1CCC(OC(c2ccccc2)c2ccccc2)CC1 | 80 to 82 °C |
| O=S1N=C(NCCCN(Cc2cccs2)c2ccccn2)C(NCc2ccncc2)=N1 (centres undefined) | 129 to 130 °C |
| Cc1onc(NS(=O)(=O)c2ccccc2-c2ccc(-c3ncco3)cc2CN(C)C(=O)CC(C)(C)C)c1C | 120 to 128 °C |
| CCN1CCC(=O)N(c2ccc(Cl)cc2C)C1=S | 133 to 136 °C |
| O=C(O)c1cccc(-c2cccc3oc(Cc4ccc(F)c(F)c4)cc23)c1 | 194 to 195 °C |
| CON=C(OC)C(=O)c1nccn1Cc1ccccc1 | 55 to 58 °C |
| CN(c1cccc2cc(C(=O)NCC(C)(CCO)SCc3ccccc3)[nH]c12)S(=O)(=O)c1cccs1 (centres undefined) | 132 to 133 °C |
| CCC1C(C)=NN=C(c2cc(OC)c(OC)c(OC)c2)c2cc(OC)c(OC)cc21 (centres undefined) | 152 to 155 °C |
| COCCNc1sc(-c2cc[nH]n2)c2c1C(=O)CC(C)(C)C2 | 171 to 173 °C |
| Cc1cn(C2(C(=O)N(C)C)CC2)nc1-c1ccccc1 | 52 to 55 °C |
| CC(c1ccccc1)N1Cc2cncn2C(c2ccc(Br)cc2)C1=O (single isomer, unassigned; (+)) | 147 to 148 °C |
| O=C(CNC(=O)c1ccc(F)cc1)c1ccsc1 | 140 to 141 °C |

| Compound | melting point |
| --- | --- |
| CN(C)c1cncc(C(=NCCc2ccccc2Cl)NC#N)c1 | 158 °C |
| CC(=O)c1cc(-c2ccc(S(C)(=O)=O)cc2)n(-c2ccc(F)cc2)n1 | 207 to 209 °C |
| COC(=O)C(C)OC(=O)c1cc(-n2c(=O)cc(C(F)(F)F)n(C)c2=O)c(F)cc1Cl (centres undefined) | 102 to 104 °C |
| c1ccc(-c2ccc(-c3cnc(-c4ccccc4)[nH]3)cn2)cc1 | 206 °C |
| CC(C)C(NC(=O)OCc1ccccc1)C(=O)NC(Cc1ccccc1)C(O)C(Cc1ccccc1)NC(=O)C(NC(=O)OCc1cccnc1)C(C)C (centres undefined) | 177 to 178 °C |
| CCCCc1nn(-c2cc(NC(=O)CC)ccc2Cl)c(=O)n1Cc1ccc(-c2cc(CC)ccc2S(=O)(=O)NC(=O)c2ccccc2Cl)cc1 | 144 to 146 °C |
| O=C(O)c1cc2c(-c3ccncc3)nccc2[nH]c1=O | > 300 °C |
| CCn1c(=O)c(C(=O)O)c(-c2ccccc2Cl)c2cc(C)c(C)cc21 | 168 to 170 °C |
| COC(=O)c1cc(N2CCC2)c(C(F)(F)F)cc1N | 80 to 86 °C |
| N=C(NCc1cccnc1)N[N+](=O)[O-] | 185 to 190 °C |
| CC(F)(F)CCc1ccccc1S(N)(=O)=O | 70 to 72 °C |
| CC(C)NC=C1C(=O)COc2ccccc2C1=O | 89 to 91 °C |
| CCCCOc1ccc(S(=O)(=O)NCCCCOc2ccc(-n3ccnc3)cc2)cc1 | 103 to 105 °C |
| CC(=O)C(=CNc1cc(Cl)cc(C(=O)O)c1Cl)C(C)=O | 244 to 246 °C |
| O=C(Nc1ccn(C(=O)c2ccccc2)c(=O)n1)c1ccccc1 | 215 to 216 °C |
| CC(NCCO)c1ccccc1 (centres undefined) | 60 °C |
| c1cc(-c2ccncn2)cc(-n2cnc3cc(-c4ccon4)ccc32)c1 | 214 to 215 °C |
| CC1CN(c2ccc(N)cc2)C(C)CN1CC(O)(Cn1cncn1)c1ccc(Cl)cc1Cl (centres undefined) | 74 to 75 °C |
| CS(=O)(=O)N1CCN(C(CC2Cc3cc(C(N)=O)ccc3O2)C(=O)NO)CC1 (centres undefined) | 185 °C |
| Cc1ccc(Cc2cnc[nH]2)cc1NS(C)(=O)=O | 170 °C |
| CCOC(=O)COc1ccc(N)cc1C(F)(F)F | 78 to 80 °C |
| CCNc1cc(C)nn1-c1c(Cl)cc(C(F)(F)F)cc1Cl | 74 to 75 °C |
| O=C(N[C@H]1CC[C@H](CCN2CCC(c3cccc4c3CCO4)CC2)CC1)C1CCC1 | 197 °C |
